Format in all cases: functional
Assay [1] concerns the target ALK tyrosine kinase receptor (Homo sapiens, UniProt Q9UM73).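 Further: ALK tested as one member of a kinase panel screen.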
In assay [2] the target is Serine/threonine-protein kinase D3 (Homo sapiens, UniProt O94806).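 Further: determined within a kinase panel screen, with PRKCN as the panel member.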
Assay [3] addresses Tyrosine-protein kinase Lck (Homo sapiens, UniProt P06239).
In assay [4] the target is Death-associated protein kinase 3 (Homo sapiens, UniProt O43293).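 Further: measured as one member of a kinome-wide profiling panel.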
Assay [5] addresses Activin receptor type-1 (Homo sapiens, UniProt Q04771). In words: Navigating the Kinome. Panel member name: ACVR1.
The target of assay [6] is Mitogen-activated protein kinase 8 (Homo sapiens, UniProt P45983).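 Further: value comes from one member of a kinome-wide kinase profiling panel.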
The target of assay [7] is Serine/threonine-protein kinase pim-1 (Homo sapiens, UniProt P11309).
The target of assay [8] is Tyrosine-protein kinase BTK (Homo sapiens, UniProt Q06187).
The target of assay [9] is Serine/threonine-protein kinase PAK 4 (Homo sapiens, UniProt O96013).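 Further: value obtained within a kinome profiling panel in which PAK4 was one of the panel members.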
For assay [10], the target named is Fibroblast growth factor receptor 1 (Homo sapiens, UniProt P11362).
Assay [11] concerns the target Casein kinase I isoform alpha (Homo sapiens, UniProt P48729).
Assay [12] deals with Tyrosine-protein kinase JAK3 (Homo sapiens, UniProt P52333).
Assay [13] deals with LIM domain kinase 1 (Homo sapiens, UniProt P53667). In words: Navigating the Kinome. Panel member name: LIMK1.
Assay [14] deals with Serine/threonine-protein kinase TAO1 (Homo sapiens, UniProt Q7L7X3).
For assay [15], the target named is Glycogen synthase kinase-3 alpha (Homo sapiens, UniProt P49840).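 Further: GSK3A result taken from a broad kinome-wide kinase panel.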
The target in assay [16] is Serine/threonine-protein kinase Chk1 (Homo sapiens, UniProt O14757).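 Further: measured as one member of a kinome-wide kinase profiling panel.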
Assay [17] concerns the target G protein-coupled receptor kinase 5 (Homo sapiens, UniProt P34947). In words: Navigating the Kinome. Panel member name: GPRK5.
Assay [18] has as its target Focal adhesion kinase 1 (Homo sapiens, UniProt Q05397).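 Further: measured as one member of a kinome panel.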
Assay [19] deals with Aurora kinase B (Homo sapiens, UniProt Q96GD4).
For assay [20], the target named is Tyrosine-protein kinase Fyn (Homo sapiens, UniProt P06241).
Assay [21] has as its target Cyclin-dependent kinase 8 (Homo sapiens, UniProt P49336). The experiment in a line: Navigating the Kinome. Panel member name: CDK8.
The target of assay [22] is Cyclin-dependent kinase 7 (Homo sapiens, UniProt P50613).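 Further: value comes from a kinome-wide kinase profiling panel in which CDK7 is one member.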
Assay [23] addresses Dual specificity protein kinase CLK4 (Homo sapiens, UniProt Q9HAZ1).
Assay [24] has as its target Mitogen-activated protein kinase kinase kinase kinase 4 (Homo sapiens, UniProt O95819).
In assay [25] the target is Calcium/calmodulin-dependent protein kinase type II subunit alpha (Homo sapiens, UniProt Q9UQM7). In words: Navigating the Kinome. Panel member name: CAMK2A.
Assay [26] concerns the target Leukocyte tyrosine kinase receptor (Homo sapiens, UniProt P29376). In words: Navigating the Kinome. Panel member name: LTK.
The target of assay [27] is Mitogen-activated protein kinase 14 (Homo sapiens, UniProt Q16539).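 Further: part of a kinome-wide panel, MAPK14 entry.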
Assay [28] concerns the target Neuropeptides B/W receptor type 1 (Homo sapiens, UniProt P48145). In words: human NPBW1 receptor blockade, IC50 – cell-based, fluorescence, dose response, set 5, late-stage follow-up (AID 588566).
Assay [29] deals with Melanin-concentrating hormone receptor 1 (Homo sapiens, UniProt Q99705). The experiment in a line: Late-stage fluorescence-based counterscreen for antagonists of the G-protein coupled receptor 7 (GPR7): cell-based dose response assay to identify antagonists of the melanin-concentrating hormone receptor 1 (MCHR1) Set 5. For orientation: A counterscreen serves to expose hits that act by an unwanted route or on another target.

Assay [30] has as its target Multidrug resistance protein CDR2 (Candida albicans (strain SC5314 / ATCC MYA-2876) (Yeast), UniProt P78595). In words: inhibition of Nile Red efflux via Candida CDR2 – S. cerevisiae AD1-8u, singleplex, Cherry Pick1 hits, dose response (AID 588604).

Results on three compounds are retold here after ChEMBL document CHEMBL1201862, “PubChem BioAssay data set” (2004).

Structures are written as SMILES. Activity calls are given as the source filed them. Where only a bound is given, the exact number is not on record here.

A word on the Ki: it is a measure of affinity in units of concentration, obtained from inhibition or displacement. As usually defined, the IC50 is the concentration at which inhibition is half-maximal. Usually EC50 stands for the concentration needed to bring the measured effect to its halfway point.

Sequence of Focal adhesion kinase 1 (Q05397 whole entry): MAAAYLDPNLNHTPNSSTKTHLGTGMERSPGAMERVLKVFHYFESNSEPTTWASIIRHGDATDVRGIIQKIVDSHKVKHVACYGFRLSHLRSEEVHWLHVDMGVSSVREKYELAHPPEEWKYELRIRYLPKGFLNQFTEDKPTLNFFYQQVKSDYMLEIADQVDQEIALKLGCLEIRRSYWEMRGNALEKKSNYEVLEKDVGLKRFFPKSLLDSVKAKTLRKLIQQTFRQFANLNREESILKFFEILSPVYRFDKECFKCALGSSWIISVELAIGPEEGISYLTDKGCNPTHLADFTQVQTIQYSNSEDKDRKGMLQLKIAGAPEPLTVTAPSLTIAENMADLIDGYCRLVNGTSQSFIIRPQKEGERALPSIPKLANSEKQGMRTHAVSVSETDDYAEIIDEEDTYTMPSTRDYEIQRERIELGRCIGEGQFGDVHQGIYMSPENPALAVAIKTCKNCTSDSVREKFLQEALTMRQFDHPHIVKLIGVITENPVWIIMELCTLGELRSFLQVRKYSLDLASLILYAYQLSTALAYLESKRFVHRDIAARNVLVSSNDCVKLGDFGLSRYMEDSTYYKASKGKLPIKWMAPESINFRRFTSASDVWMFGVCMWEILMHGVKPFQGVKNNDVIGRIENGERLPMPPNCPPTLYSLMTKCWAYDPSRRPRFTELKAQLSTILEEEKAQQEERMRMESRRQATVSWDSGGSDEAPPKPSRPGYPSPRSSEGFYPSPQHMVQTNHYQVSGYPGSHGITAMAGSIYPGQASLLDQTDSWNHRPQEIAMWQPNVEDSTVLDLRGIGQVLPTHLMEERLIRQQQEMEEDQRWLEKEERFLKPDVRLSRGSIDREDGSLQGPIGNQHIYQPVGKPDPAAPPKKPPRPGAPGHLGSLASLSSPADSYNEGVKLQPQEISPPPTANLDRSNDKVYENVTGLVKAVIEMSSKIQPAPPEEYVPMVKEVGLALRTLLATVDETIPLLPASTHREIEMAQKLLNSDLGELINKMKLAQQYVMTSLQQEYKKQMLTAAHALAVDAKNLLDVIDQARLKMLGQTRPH
Sequence of ALK tyrosine kinase receptor (Q9UM73 whole entry): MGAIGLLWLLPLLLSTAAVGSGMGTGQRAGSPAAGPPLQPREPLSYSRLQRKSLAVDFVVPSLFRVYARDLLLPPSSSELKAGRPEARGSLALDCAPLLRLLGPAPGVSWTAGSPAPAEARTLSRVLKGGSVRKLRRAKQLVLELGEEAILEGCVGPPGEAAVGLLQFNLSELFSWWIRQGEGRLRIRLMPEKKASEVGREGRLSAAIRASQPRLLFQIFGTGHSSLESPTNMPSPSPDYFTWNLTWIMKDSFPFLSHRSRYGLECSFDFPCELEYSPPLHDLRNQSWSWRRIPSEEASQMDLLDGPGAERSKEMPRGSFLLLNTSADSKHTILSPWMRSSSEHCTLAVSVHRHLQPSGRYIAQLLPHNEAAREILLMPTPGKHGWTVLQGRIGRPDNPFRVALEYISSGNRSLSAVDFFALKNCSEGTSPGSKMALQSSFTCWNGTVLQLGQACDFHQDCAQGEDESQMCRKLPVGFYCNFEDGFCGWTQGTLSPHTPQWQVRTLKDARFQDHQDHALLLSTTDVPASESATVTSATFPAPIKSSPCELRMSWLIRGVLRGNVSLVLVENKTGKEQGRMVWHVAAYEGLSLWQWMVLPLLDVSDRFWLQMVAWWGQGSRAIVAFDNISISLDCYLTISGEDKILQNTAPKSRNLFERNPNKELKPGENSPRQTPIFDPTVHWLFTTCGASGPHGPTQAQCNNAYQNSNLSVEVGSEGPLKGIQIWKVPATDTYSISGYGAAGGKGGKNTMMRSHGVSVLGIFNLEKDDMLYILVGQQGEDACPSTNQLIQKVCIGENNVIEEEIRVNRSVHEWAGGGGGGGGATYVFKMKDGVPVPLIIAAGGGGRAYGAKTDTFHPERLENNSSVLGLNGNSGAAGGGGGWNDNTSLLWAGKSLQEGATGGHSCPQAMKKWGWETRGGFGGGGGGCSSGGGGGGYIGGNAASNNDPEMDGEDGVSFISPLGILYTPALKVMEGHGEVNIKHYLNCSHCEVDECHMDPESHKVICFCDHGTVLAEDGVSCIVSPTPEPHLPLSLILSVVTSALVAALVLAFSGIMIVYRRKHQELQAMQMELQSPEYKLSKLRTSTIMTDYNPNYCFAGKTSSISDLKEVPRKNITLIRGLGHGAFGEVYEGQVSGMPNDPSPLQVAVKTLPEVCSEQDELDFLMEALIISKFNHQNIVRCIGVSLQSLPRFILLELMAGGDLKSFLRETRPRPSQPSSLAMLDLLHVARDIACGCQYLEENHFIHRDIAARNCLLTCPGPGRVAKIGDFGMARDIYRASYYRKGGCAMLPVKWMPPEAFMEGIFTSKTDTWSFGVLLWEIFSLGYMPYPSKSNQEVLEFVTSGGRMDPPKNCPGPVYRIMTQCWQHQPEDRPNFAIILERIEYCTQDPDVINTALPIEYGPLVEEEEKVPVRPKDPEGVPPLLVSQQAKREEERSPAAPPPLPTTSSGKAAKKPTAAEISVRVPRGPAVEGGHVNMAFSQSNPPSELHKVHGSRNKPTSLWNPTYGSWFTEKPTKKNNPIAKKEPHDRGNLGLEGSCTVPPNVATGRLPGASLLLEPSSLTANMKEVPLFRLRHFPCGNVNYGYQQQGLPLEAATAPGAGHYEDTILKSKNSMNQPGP
Sequence of Activin receptor type-1 (Q04771 whole entry): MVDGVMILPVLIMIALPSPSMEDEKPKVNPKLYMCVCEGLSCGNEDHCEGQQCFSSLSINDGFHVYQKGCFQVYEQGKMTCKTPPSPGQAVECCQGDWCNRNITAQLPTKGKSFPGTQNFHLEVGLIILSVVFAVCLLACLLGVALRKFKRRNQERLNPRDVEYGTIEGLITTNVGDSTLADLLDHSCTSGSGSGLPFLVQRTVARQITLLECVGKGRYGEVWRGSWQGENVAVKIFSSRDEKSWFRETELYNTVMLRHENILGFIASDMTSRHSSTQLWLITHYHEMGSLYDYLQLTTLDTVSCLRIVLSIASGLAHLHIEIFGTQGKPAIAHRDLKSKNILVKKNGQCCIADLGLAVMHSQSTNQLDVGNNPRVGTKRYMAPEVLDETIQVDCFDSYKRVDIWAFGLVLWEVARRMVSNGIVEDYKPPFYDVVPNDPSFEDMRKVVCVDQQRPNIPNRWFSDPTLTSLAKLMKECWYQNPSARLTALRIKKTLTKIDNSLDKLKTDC
Sequence of Tyrosine-protein kinase BTK (Q06187 whole entry): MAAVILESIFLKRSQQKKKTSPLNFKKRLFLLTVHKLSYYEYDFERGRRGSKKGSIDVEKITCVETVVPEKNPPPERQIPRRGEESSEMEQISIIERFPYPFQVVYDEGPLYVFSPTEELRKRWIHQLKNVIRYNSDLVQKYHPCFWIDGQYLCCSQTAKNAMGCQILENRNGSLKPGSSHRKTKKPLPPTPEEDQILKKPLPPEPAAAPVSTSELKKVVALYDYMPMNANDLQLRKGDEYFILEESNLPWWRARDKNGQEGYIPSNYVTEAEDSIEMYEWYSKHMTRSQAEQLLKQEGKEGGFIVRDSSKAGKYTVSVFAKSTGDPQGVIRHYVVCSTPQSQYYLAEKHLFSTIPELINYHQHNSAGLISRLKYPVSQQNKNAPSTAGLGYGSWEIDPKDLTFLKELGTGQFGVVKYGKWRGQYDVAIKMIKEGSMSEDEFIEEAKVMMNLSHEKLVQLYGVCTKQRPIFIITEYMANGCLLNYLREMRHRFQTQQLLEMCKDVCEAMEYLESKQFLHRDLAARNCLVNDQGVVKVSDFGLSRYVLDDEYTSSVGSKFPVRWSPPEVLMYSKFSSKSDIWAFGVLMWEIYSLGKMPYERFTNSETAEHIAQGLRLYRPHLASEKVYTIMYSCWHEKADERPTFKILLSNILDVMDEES
Sequence of Cyclin-dependent kinase 8 (P49336 whole entry): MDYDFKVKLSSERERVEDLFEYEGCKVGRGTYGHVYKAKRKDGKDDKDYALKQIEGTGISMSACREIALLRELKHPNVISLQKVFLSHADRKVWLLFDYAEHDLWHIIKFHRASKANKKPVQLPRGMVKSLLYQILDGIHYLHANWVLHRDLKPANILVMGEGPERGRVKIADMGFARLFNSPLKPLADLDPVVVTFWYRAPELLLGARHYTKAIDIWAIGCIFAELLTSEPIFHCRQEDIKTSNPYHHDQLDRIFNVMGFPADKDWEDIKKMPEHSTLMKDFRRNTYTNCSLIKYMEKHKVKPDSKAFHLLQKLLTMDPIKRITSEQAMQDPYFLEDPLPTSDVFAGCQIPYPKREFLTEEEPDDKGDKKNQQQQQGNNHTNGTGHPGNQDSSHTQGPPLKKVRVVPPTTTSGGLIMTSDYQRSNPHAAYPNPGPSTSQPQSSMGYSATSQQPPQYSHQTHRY
Sequence of Melanin-concentrating hormone receptor 1 (Q99705 whole entry): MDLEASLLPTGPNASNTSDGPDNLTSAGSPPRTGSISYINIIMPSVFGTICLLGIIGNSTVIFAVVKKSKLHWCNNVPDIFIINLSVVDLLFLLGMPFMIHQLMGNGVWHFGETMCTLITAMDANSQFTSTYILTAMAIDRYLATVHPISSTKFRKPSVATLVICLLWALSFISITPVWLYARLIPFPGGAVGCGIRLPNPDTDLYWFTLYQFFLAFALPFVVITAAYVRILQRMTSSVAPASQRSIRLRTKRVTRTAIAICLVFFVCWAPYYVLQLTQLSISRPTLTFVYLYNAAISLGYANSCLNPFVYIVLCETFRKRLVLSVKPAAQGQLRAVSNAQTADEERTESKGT
Sequence of Casein kinase I isoform alpha (P48729 whole entry, canonical isoform): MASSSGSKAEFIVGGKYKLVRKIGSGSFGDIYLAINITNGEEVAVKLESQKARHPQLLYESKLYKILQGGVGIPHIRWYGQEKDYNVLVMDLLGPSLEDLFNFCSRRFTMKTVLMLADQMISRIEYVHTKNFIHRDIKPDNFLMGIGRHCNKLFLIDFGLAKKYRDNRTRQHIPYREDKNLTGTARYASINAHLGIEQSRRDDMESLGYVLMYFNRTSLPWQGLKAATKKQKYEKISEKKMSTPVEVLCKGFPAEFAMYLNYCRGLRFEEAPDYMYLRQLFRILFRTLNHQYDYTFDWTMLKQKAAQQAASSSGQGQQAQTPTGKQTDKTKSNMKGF

Take `CCN(CC)CCNc1ccc(O)c2ccccc12`: the Ki was > 6.31 µM (inactive) in assay [1]; > 3.98 µM (inactive) in assay [2]; > 6.31 µM (inactive) in assay [3]; > 5.01 µM (inactive) in [4]; > 3.98 µM (inactive) in [5]; > 5.01 µM (inactive) in [6]. The Ki in assay [7] was 2.51 µM (active); in [8], > 6.31 µM (inactive); in assay [9] it was > 5.01 µM (inactive); in assay [10], > 3.98 µM (inactive); in [11] it was > 3.98 µM (inactive); in assay [12], > 5.01 µM (inactive). For the same compound, the inhibition constant Ki is 0.794 µM (active) in assay [13]; > 6.31 µM (inactive) in assay [14]; > 3.98 µM (inactive) in assay [15]; 0.398 µM (active) in assay [16]; > 3.98 µM (inactive) in assay [17]; > 6.31 µM (inactive) in [18]. The Ki in [19] is > 3.98 µM (inactive); in assay [20], > 6.31 µM (inactive); in assay [21] it was > 3.98 µM (inactive); in [22], > 3.98 µM (inactive); in assay [23] it was 2 µM (active); in assay [24], > 5.01 µM (inactive). Moreover, the Ki in assay [25] was > 3.98 µM (inactive); in [26] it was 2 µM (active); in assay [27], > 3.98 µM (inactive).
In the case of `O=c1c(Cl)c(Oc2ccc3c(c2)CCO3)cnn1Cc1cccc2ccccc12`, the IC50 in [28] was 3.22 µM (active); in [29] it was 10.4 µM (inactive).
With `CCCCSC1=N/C(=C/c2ccsc2)C(=O)N1c1ccccc1`, the 50% effective concentration (EC50) in [30] was 10.3 µM (active).
